In patent US10918645B2 (LIFEARC, priority 2016, dated 2021):

Columns and labels:
Details in all cases: 1 μM inhibitor concentration
PHK = PHK kinase selectivity assay; assay type: biochemical
Experimental: […] (5-20 mU diluted in 50 mM Na-b-glycerophosphate pH 7.0, 0.1% b-mercaptoethanol) is assayed against phosphorylase b peptide ([…]) in a final volume of 25.5 μl containing 50 mM Tris pH 8.6, 50 mM Na-b-glycerophosphate, 0.04 mM CaCl2, phosphorylase b peptide (0.196 mM), 10 mM magnesium acetate, 0.02 mM [33P-g-ATP] (500-1000 cpm/pmole) then incubated for 15 min at room temperature. Assays are stopped by addition of 5 μl of 0.5 M (3%) orthophosphoric acid and then harvested onto P81 Unifilter plates with a wash buffer of 50 mM orthophosphoric acid.

AuroraB = AuroraB (Homo sapiens (Human), UniProt Q96GD4); experiment: AuroraB kinase selectivity assay; assay type: biochemical
Chain of AuroraB (Q96GD4 whole entry): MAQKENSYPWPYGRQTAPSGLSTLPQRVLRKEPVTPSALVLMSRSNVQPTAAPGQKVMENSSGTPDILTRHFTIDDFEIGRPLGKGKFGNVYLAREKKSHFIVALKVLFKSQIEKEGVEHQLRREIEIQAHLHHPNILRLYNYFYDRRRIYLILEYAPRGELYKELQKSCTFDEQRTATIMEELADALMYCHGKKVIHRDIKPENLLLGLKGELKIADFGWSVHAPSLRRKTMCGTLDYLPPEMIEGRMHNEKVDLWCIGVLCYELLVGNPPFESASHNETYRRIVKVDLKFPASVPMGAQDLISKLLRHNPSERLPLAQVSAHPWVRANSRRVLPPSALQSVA
Experimental: Aurora B (5-20 mU diluted in 50 mM Tris pH 7.5, 0.1 mM EGTA, 0.1% b-mercaptoethanol, 1 mg/ml BSA) is assayed against a substrate peptide ([…]) in a final volume of 25.5 μl containing 50 mM Tris pH 7.5, 0.05% b-mercaptoethanol, 300 μM substrate peptide, 10 mM magnesium acetate and 0.02 mM [33P-g-ATP](50-1000 cpm/pmole) and incubated for 30 min at room temperature. Assays are stopped by addition of 5 μl of 0.5 M (3%) orthophosphoric acid and then harvested onto P81 Unifilter plates with a wash buffer of 50 mM orthophosphoric acid.

EPH-B3 = EPH-B3 (Homo sapiens (Human), UniProt P54753); experiment: EPH-B3 kinase selectivity assay; assay type: biochemical
Chain of EPH-B3 (P54753 34-998, species assumed): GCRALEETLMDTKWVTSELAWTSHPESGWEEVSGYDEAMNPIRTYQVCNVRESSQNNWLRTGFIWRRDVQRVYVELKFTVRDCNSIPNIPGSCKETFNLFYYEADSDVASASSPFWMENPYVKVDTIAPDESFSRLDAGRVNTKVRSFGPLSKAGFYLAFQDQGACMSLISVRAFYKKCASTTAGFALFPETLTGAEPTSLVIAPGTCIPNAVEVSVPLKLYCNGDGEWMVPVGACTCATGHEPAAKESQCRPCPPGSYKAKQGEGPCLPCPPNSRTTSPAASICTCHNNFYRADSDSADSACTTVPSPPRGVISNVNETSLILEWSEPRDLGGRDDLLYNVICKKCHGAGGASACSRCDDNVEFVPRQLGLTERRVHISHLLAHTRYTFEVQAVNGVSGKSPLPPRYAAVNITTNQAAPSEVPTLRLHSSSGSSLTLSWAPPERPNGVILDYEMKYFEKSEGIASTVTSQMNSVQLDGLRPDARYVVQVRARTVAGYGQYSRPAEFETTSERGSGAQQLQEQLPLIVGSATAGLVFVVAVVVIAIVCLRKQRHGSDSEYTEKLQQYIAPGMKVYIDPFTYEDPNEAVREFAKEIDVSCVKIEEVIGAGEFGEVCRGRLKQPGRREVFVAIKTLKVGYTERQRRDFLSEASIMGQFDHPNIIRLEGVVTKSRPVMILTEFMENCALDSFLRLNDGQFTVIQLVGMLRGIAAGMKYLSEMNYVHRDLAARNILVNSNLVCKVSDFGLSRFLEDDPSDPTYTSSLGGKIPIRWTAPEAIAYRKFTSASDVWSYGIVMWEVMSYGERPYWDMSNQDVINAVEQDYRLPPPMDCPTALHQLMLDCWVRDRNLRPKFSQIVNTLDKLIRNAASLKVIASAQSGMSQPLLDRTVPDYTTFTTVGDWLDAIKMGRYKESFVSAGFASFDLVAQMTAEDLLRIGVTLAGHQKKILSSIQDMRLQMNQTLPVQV
Experimental: EPH-B3 (5-20 mU diluted in 50 mM Tris pH 7.5, 0.1 mM EGTA, 1 mg/ml BSA) is assayed against a substrate peptide (Poly Glut Tyr) in a final volume of 25.5 μl containing 50 mM Tris pH 7.5, 1 mg/ml substrate peptide, 10 mM magnesium acetate and 0.005 mM [33P-g-ATP] (50-1000 cpm/pmole) and incubated for 30 min at room temperature. Assays are stopped by addition of 5 μl of 0.5 M (3%) orthophosphoric acid and then harvested onto P81 Unifilter plates with a wash buffer of 50 mM orthophosphoric acid.

GCK = GCK (Homo sapiens (Human), UniProt Q12851); experiment: GCK kinase selectivity assay; assay type: biochemical
Chain of GCK (Q12851 whole entry): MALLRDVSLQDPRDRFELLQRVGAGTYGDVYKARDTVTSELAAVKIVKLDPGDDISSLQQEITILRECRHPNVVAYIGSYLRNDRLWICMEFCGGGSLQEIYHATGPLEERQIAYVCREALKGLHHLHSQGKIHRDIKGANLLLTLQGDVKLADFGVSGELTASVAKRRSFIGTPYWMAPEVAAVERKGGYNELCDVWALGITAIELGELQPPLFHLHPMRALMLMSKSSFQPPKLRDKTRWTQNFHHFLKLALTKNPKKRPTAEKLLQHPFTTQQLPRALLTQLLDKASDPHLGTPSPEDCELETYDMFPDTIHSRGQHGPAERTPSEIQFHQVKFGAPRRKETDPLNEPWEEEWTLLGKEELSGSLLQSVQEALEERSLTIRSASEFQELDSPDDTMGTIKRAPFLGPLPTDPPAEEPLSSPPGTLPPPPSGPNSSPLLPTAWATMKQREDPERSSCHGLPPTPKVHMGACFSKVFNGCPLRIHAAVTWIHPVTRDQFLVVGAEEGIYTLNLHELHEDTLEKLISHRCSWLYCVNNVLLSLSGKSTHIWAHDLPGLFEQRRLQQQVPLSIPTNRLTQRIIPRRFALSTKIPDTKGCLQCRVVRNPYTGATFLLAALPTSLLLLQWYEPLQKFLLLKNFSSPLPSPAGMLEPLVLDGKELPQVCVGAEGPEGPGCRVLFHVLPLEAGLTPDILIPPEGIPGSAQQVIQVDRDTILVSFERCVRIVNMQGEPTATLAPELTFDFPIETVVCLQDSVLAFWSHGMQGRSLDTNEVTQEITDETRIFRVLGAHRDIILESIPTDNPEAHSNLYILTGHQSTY
Experimental: GCK (5-20 mU diluted in 50 mM Tris pH 7.5, 0.1 mM EGTA, 0.1% β-mercaptoethanol, 1 mg/ml BSA) is assayed against MBP in a final volume of 25.5 μl containing 50 mM Tris pH 7.5, 0.1 mM EGTA, 0.33 mg/ml MBP, 10 mM magnesium acetate and 0.02 mM [33P-γ-ATP] (50-1000 cpm/pmole) and incubated for 30 min at room temperature. Assays are stopped by addition of 5 μl of 0.5 M (3%) orthophosphoric acid and then harvested onto P81 Unifilter plates with a wash buffer of 50 mM orthophosphoric acid.

TBK1 = TBK1 (Homo sapiens (Human), UniProt Q9UHD2); experiment: TBK1 kinase selectivity assay; assay type: biochemical
Chain of TBK1 (Q9UHD2 whole entry, species assumed): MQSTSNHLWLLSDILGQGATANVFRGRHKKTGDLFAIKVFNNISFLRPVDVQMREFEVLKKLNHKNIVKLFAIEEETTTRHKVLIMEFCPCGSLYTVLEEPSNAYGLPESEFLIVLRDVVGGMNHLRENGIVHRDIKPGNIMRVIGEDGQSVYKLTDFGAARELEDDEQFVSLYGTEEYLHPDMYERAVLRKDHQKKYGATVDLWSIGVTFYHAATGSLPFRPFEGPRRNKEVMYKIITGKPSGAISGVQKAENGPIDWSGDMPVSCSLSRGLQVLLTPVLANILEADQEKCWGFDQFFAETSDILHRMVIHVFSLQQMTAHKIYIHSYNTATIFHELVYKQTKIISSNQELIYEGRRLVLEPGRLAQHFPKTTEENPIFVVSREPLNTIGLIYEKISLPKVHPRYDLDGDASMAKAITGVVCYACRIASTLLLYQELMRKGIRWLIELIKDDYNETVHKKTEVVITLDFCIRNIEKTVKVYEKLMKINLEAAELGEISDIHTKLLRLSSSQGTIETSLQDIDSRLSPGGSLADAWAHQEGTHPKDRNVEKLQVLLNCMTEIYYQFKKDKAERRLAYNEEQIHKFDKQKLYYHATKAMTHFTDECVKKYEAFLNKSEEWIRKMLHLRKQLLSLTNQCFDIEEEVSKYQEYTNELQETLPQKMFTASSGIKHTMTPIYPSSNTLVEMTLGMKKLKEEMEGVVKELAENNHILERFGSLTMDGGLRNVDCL
Experimental: TBK1 (DU12569) (5-20 mU diluted in 50 mM Tris pH 7.5, 0.1 mM EGTA, 1 mg/ml BSA) is assayed against a substrate peptide ([…]) in a final volume of 25.5 μl containing 50 mM Tris pH 7.5, 300 μM substrate peptide, 10 mM magnesium acetate and 0.05 mM [33P-g-ATP] (50-1000 cpm/pmole) and incubated for 30 min at room temperature. Assays are stopped by addition of 5 μl of 0.5 M (3%) orthophosphoric acid and then harvested onto P81 Unifilter plates with a wash buffer of 50 mM orthophosphoric acid.

ERK2 = ERK2 (Homo sapiens (Human), UniProt P28482); experiment: ERK2 kinase selectivity assay; assay type: biochemical
Chain of ERK2 (P28482 whole entry, species assumed): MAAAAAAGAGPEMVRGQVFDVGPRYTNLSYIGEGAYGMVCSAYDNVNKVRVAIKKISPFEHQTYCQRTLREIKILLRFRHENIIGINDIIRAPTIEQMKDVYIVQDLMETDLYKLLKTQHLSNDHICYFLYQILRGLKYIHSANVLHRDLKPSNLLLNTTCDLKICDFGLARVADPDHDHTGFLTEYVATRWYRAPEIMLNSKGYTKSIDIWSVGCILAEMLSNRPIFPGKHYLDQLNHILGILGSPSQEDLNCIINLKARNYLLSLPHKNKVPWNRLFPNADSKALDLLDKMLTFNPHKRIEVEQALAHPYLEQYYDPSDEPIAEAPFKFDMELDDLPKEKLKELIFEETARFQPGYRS
Experimental: MAPK/ERK2 (5-20 mU diluted in 50 mM Tris pH 7.5, 0.1 mM EGTA, 0.1 mM Na3VO4, 0.1% b-mercaptoethanol, 1 mg/ml BSA) is assayed against MBP in a final volume of 25.5 μl in 25 mM Tris pH 7.5, 0.1 mM EGTA, 0.33 mg/ml MBP, 10 mM magnesium acetate and 0.05 mM [33P-g-ATP](500-1000 cpm/pmole) and incubated for 30 min at room temperature. Assays are stopped by addition of 5 μl of 0.5 M (3%) orthophosphoric acid and then harvested onto P81 Unifilter plates with a wash buffer of 50 mM orthophosphoric acid.

RSK1 = RSK1 (Homo sapiens (Human), UniProt Q15418); experiment: RSK1 kinase selectivity assay; assay type: biochemical
Chain of RSK1 (Q15418 whole entry, species assumed): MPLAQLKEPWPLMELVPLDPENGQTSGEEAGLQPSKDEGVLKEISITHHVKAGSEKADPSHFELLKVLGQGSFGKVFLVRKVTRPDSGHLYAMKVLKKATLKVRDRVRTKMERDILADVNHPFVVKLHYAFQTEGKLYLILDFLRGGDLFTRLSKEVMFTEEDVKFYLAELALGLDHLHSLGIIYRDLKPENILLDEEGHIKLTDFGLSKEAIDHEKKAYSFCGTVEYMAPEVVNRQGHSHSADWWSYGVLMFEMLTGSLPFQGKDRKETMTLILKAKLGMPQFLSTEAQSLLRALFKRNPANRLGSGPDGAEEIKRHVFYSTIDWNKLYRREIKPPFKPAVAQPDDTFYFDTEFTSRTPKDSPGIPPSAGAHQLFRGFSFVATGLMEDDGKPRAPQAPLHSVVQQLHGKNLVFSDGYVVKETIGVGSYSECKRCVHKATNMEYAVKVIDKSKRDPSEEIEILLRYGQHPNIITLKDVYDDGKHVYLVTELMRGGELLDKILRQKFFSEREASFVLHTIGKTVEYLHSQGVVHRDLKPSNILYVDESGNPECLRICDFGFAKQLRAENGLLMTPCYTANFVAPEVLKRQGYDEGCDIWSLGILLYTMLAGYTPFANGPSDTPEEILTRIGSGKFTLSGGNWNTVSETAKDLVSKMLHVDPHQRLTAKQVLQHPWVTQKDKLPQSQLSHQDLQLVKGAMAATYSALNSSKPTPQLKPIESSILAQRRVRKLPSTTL
Experimental: MAPKAP-K1a (5-20 mU diluted in 20 mM MOPS pH 7.5, 1 mM EDTA, 0.01% Brij35, 5% glycerol, 0.1% b-mercaptoethanol, 1 mg/ml BSA) is assayed against […] in a final volume of 25.5 μl containing 50 mM Na-b-glycerophosphate pH 7.5, 0.5 mM EDTA, 30 μM substrate peptide, 10 mM magnesium acetate and 0.05 mM [33P-g-ATP] (50-1000 cpm/pmole) and incubated for 40 min at room temperature. Assays are stopped by addition of 5 μl of 0.5 M (3%) orthophosphoric acid and then harvested onto P81 Unifilter plates with a wash buffer of 50 mM orthophosphoric acid.

AMPK(hum) = experiment: AMPK kinase selectivity assay; assay type: biochemical, human
Experimental: AMPK (5-20 mU diluted in 50 mM Hepes pH 7.5, 1 mM DTT, 0.02% Brij35) is assayed against SAMS substrate peptide ([…]) in a final volume of 25.5 μl containing 50 mM Hepes pH 7.5, 1 mM DTT, 0.02% Brij35, 0.4 mM SAMS peptide, 0.196 mM AMP, 10 mM magnesium acetate and 0.05 mM [33P-g-ATP] (50-1000 cpm/pmole) and incubated for 30 min at room temperature. Assays are stopped by addition of 5 μl of 0.5 M (3%) orthophosphoric acid and then harvested onto P81 Unifilter plates with a wash buffer of 50 mM orthophosphoric acid.

SRPK1 = SRPK1 (Homo sapiens (Human), UniProt Q96SB4); experiment: SRPK1 kinase selectivity assay; assay type: biochemical
Chain of SRPK1 (Q96SB4 whole entry, species assumed): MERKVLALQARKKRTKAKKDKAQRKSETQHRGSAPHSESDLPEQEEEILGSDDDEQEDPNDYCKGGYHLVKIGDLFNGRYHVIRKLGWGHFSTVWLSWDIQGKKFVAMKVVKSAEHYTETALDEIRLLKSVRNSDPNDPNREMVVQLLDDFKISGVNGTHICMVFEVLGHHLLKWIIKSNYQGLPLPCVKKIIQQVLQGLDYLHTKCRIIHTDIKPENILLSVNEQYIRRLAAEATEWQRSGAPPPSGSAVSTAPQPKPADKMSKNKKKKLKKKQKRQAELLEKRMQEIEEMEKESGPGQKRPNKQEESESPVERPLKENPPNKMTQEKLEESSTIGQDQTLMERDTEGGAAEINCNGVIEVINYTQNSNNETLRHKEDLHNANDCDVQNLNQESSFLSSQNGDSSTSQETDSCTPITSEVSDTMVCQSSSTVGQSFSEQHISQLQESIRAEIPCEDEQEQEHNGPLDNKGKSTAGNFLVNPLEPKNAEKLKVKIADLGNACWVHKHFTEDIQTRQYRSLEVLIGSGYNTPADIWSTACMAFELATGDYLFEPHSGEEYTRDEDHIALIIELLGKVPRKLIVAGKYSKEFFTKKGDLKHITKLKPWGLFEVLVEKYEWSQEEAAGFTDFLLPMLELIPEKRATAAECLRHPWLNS
Experimental: 5-20 mU of SRPK1 (diluted in 50 mM Tris (pH 7.5), 0.1 mM EGTA, 1 mg/ml BSA, 0.1%, b-Mercaptoethanol) is assayed against substrate peptide ([…]) in a final volume of […] containing 50 mM Tris (pH 7.5), 0.1 mM EGTA, 0.1%, b-Mercaptoethanol, 300 μM substrate peptide, 10 mM magnesium acetate and 0.05 mM [33P-g-ATP](500-1000 cpm/pmole) and incubated for 30 mins at room temperature. Assays are stopped by addition of 5 μl of 0.5M (3%) orthophosphoric acid. Assays are harvested onto P81 Unifilter plates using a wash buffer of 50 mM orthophosphoric acid.

| Structure (SMILES) | percentage inhibition of PHK (PHK) [percentage] | percentage inhibition of AuroraB (AuroraB) [percentage] | percentage inhibition of EPH-B3 (EPH-B3) [percentage] | percentage inhibition of GCK (GCK) [percentage] | percentage inhibition of TBK1 (TBK1) [percentage] | percentage inhibition of ERK2 (ERK2) [percentage] | percentage inhibition of RSK1 (RSK1) [percentage] | percentage inhibition of AMPK(hum) (AMPK(hum)) [percentage] | percentage inhibition of SRPK1 (SRPK1) [percentage] |
| --- | --- | --- | --- | --- | --- | --- | --- | --- | --- |
| c1cc2[nH]nc3c2c(n1)N(C1CCC1)CCC3 [Example 22, 6-cyclobutyl-6,7,8,9-tetrahydro-2H-1,2,5,6-tetraazabenzo[cd]azulene] | 41 | 23 | 0 | 56 | 0 | 0 | 0 | 16 | 0 |
| c1cc2[nH]nc3c2c(n1)N(C1CCCC1)CCC3 [Example 23, 6-cyclopentyl-6,7,8,9-tetrahydro-2H-1,2,5,6-tetraazabenzo[cd]azulene] |  | 1 | 0 | 41 | 0 | 0 | 0 |  | 0 |
| c1cc2[nH]nc3c2c(n1)N(C1CCOCC1)CCC3 [Example 29, 6-(tetrahydro-2H-pyran-4-yl)-6,7,8,9-tetrahydro-2H-1,2,5,6-tetraazabenzo[cd]azulene] | 35 | 29 | 0 | 67 | 0 | 0 | 10 | 6 | 0 |
| CN1CCC(N2Cc3ccccc3-c3n[nH]c4ccnc2c34)CC1 [Example 55] | 73 | 38 | 12 | 71 | 5 | 0 | 41 | 64 | 0 |
| CC(C)n1ncc2c1CN(C1CCN(C)CC1)c1nccc3[nH]nc-2c13 [Example 68] | 43 | 19 | 5 | 27 | 5 | 11 | 69 | 32 | 0 |
